Measurements reported in paper PMC5638327, “Comparison of bioavailability and antiplatelet action of ticagrelor in patients with ST-elevation myocardial infarction and non-ST-elevation myocardial infarction: A prospective, observational, single-centre study” (PLoS ONE, 2017).

Tests used:
[1] = Pharmacokinetic assessment: plasma concentrations by liquid chromatography tandem mass spectrometry after ticagrelor loading dose; format: in vivo, human (patients with myocardial infarction); settings: for AUC(0–6) / AUC(0–12): oral 180 mg ticagrelor LD, plasma, median [interquartile range]
Experimental: Consecutive STEMI and NSTEMI patients admitted to the study site (Cardiology Department, Dr. A. Jurasz University Hospital, Bydgoszcz, Poland) were screened for eligibility. After admission to the study centre, confirmation of the initial diagnosis of STEMI or NSTEMI, and provision of a written informed consent to participate in the trial, all study participants received an oral 300 mg LD of plain aspirin (Polpharma SA, Starogard Gdański, Poland) and 180 mg LD ticagrelor in integral tablets with 250 mL tap water. Subsequently, within 15 minutes of ticagrelor LD, all patients underwent coronary angiography followed by PCI as required. During the periprocedural period, all study participants received unfractionated heparin in body weight adjusted dose according to the European Society of Cardiology (ESC) recommendations. Plasma concentrations of ticagrelor and its active metabolite, as well as their antiplatelet effect, were evaluated according to the sampling schedule employed at our centre in previous PK/PD study (pre-treatment, 0.5 h, 1 h, 2 h, 3 h, 4 h, 6 h and 12 h post ticagrelor LD).
Blood samples for PK/PD evaluation were obtained from an 18-gauge cannula inserted into one of the forearm veins. The first 5 mL blood was discarded to avoid spontaneous platelet activation. In each patient specimens were collected at the eight pre-defined time. Detailed description of blood sample processing has been published in the study protocol (S1 File).
Ticagrelor and AR-C124910XX plasma concentrations were analyzed with liquid chromatography coupled with tandem mass spectrometry, using a validated method. Lower limits of quantification were 4.69 ng/mL for both ticagrelor and AR-C124910XX.
Statistical calculations were performed using the Statistica 12.5 package (StatSoft, Tulsa, OK, USA). Pharmacokinetic calculations and plots were made using the Matlab R2014 software (Mathworks, Natick, MA, USA); trapezoidal rule was applied to calculate AUC. Data for pharmacokinetic features of ticagrelor and AR-C124910XX, pharmacodynamic outcome variables, creatinine, glomerular filtration rate and left ventricle ejection fraction were presented as medians and interquartile ranges. Data for heart rate, systolic and diastolic blood pressure, age and body mass index were presented as means with standard deviations. […] Continuous variables were compared between both study groups with the Student’s t-test and Mann-Whitney U test, depending on the presence or absence of the normal distribution (as assessed by the Shapiro-Wilk test). Comparisons between categorical variables were performed by the chi-square test, with Yates's correction if necessary, or using Fisher's exact test. […]
Blood samples for pharmacokinetic and phar- infarction; PCI, percutaneous coronary intervention; PD, macodynamic assessment will be drawn at eight prede- pharmacodynamics; PK, pharmacokinetics; STEMI, ﬁned time points according to the blood sampling ST-elevation myocardial infarction. schedule already used at our site in a previous study
( pretreatment baseline, 30 min, 1, 2, 3, 4, 6 andsamples will be stored at temperature below −60°C until 12 hours post-ticagrelor LD— as shown in ﬁgure 1). 31 analysed.
All enrolled patients with ﬁnally unconﬁrmed initial Venous blood for the assessment of pharmacodynam-diagnosis of AMI will be excluded from the primar y ana- ics with the vasodilator-stimulated phosphoprotein lysis. Patients qualiﬁed for urgent coronar y arter y bypass (VASP) assay and multiple electrode aggregometr y surgery within the blood sampling period also will not (MEA) will be collected into trisodium citrate and be included in the analysis. All study participants not hirudin vacuum test tubes, respectively. The ﬁrst 3–5mL receiving PCI will be reported. of blood will be discarded to avoid spontaneous platelet Study population activation. The pharmacodynamic analysis will be per- […]

[2] = set-up: method as in PMID 20551239; settings: blood plasma, after ticagrelor; cited from earlier work
platelet reactivity [3] = tested on: platelet reactivity; set-up: method as in PMID 27885888; settings: STEMI patients, first hour after ticagrelor LD, parenteral; cited from earlier work
platelet reactivity [4] = tested on: platelet reactivity; set-up: method as in PMID 27366874; settings: STEMI patients on prasugrel with concomitant morphine, intravenous; cited from earlier work

In the case of `CCCSc1nc(N[C@@H]2C[C@H]2c2ccc(F)c(F)c2)c2nnn([C@@H]3C[C@H](O)[C@@H](O)[C@H]3O)c2n1` [AR-C124910XX], the “AUC(0–6)” value ([1]; NSTEMI patients (n = 24)) is reported as 712 [346–1616] ng*h/mL, the “AUC(0–12)” value ([1]; NSTEMI patients) is reported as 1523 [1005–2867] ng*h/mL and the “AUC(0–6)” value ([1]; STEMI patients (n = 49)) is reported as 473 [0–924] ng*h/mL. The “AUC(0–12)” value ([1]; STEMI patients) was 1383 [766–2182] ng*h/mL, the “lower AUC(0–6) in STEMI than in NSTEMI patients” value ([1]; first 6 h after 180 mg ticagrelor LD) was 34% and the “plasma concentration relative to the main compound” value [2] was 30–40%.

In the case of `CSCCNc1nc(SCCC(F)(F)F)nc2c1ncn2[C@@H]1O[C@H](COP(=O)(O)OP(=O)(O)C(Cl)(Cl)P(=O)(O)O)[C@@H](O)[C@H]1O` [cangrelor], the “effect on platelet reactivity and HPR” value (platelet reactivity [3]) is given as “markedly reduced platelet reactivity and basically eliminated HPR phenomenon”.

B1: abciximab (antibody, chains of the INN, looked up, V domains shown)
VH: EVQLQQSGTVLARPGASVKMSCEASGYTFTNYWMHWVKQRPGQGLEWIGAIYPGNSDTSYIQKFKGKAKLTAVTSTTSVYMELSSLTNEDSAVYYCTLYDGYYVFAYWGQGTLVTVSA
VL: EIVLTQSPVTLSVTPGDSVSLSCRASRDISNNLHWFQQTSHESPRLLIKYASQSMSGIPSRFSGSGSGTDFTLSINSVETEDFGMYFCQQTNSWPYTFGGGTKLEIK
modifications: Fab
For B1, the platelet inhibition (platelet reactivity [4]) is listed as “immediate and efficient platelet inhibition”.
